Test results published in US20050075398A1, “Neuroprotectin D1 protects against cellular apoptosis, stroke damage, alzheimer's disease and retinal diseases” (priority 2003, published 2005).
“Also recorded” adds a separate entry of the source.

Tests used:
[1] = tested on: prostaglandin E2 (PGE2) formation; assay: ELISA of PGE2 in hippocampus during reperfusion after MCA-O; type: in vivo, mouse; conditions: aspirin 7.52 mg/kg by gavage 15 min before MCA-O; C57BL/6 mice
Procedure: To confirm that the aspirin dose administered by gavage did reach the brain, the time course for prostaglandin E2, LTB4, and lipoxin A4 production was determined in the hippocampus in parallel assays. The time course of prostaglandin E2, leukotriene B4, and lipoxin A4 formation was followed in mouse hippocampus after 1-h middle cerebral artery occlusion (MCA-O), followed by reperfusion with (FIG. 2B) or without (FIG. 2A) aspirin treatment. Detection of the compounds was performed by sensitive and specific ELISA, in tandem, for prostaglandin E2 (PGE2), leukotriene B4 (LTB4), and lipoxins (LXA4) (Neogen, Lexington, Ky.). […] Maximal LTB4 was generated in aspirin-treated hippocampus by 8 h, as was the case with lipoxin A4, which also peaked within 8 h.

ARPE-19 cells = assay: Hoechst staining, TNFα/H2O2 oxidative stress-induced apoptosis; type: cell-based, human; conditions: 50 nM added with TNFα 10 ng/ml plus H2O2 (400-800 μM); 14 h
Procedure: ARPE-19 cell culture and chemicals: ARPE-19 cells (L. M. Hjelmeland, ATCC # CRL-2302) were grown and maintained in DMEM-F12 medium supplemented with 10% FBS and incubated at 37° C. with a constant supply of 5% CO2. ARPE-19 cells are spontaneously transformed human retinal pigment epithelial cells that conserve cellular biological and functional properties. All chemicals were purchased from Sigma Chemical Co. (St. Louis, Mo.) unless otherwise indicated.
Hoechst staining: ARPE-19 cells were loaded with 2 μM Hoechst dissolved in a Locke's solution (Promega, Madison, Wis.) and incubated one h at 37° C. before imaging. Cells were then washed once with PBS and viewed using a Nikon DIAPHOT 200 microscope under UV fluorescence. Images were recorded by a Hamamatsu Color Chilled 3CCD camera and Photoshop 5.0 software, as described in Mukherjee, P. K., DeCoster, M. A., Campbell, F. Z., Davis, R. J. & Bazan, N. G. (1999) J. Biol. Chem. 274:6493-6498.
Several experimental conditions that result in reproducible oxidative-stress-induced apoptosis in ARPE-19 cells were tested. One condition chosen was the combination of TNFα with H2O2, both in relatively low concentrations. Typically 10 ng/ml of TNFα and 400-800 μM H2O2 led to marked increase in Hoechst-positive cells (Data not shown). Neither TNFα nor H2O2 alone triggered a significant effect under these conditions. (Data not shown).
Serum starvation made ARPE-19 cells more sensitive to oxidative stress-triggered apoptosis induced by TNFα/H2O2. Cells were grown in culture for 72 h in the presence of BSA (3.35 μM) with or without DHA (6.7 μM). Endogenous NPD1 formation was enhanced by BSA-DHA (FIG. 12A).
In the next experiment, confluent cells were starved for 8 h, then TNFα/H2O2 was added and incubated for 14 h before staining with Hoechst reagent. NPD1 (50 nM) was added at the time of adding TNFα/H2O2. […] When the TNFα concentration (10 ng/ml) was maintained and H2O2 concentration was decreased from 800 to 400 μM, fewer Hoechst-positive cells were seen. […] (Data not shown).

[2] = tested on: polymorphonuclear leukocyte infiltration (myeloperoxidase activity); assay: Myeloperoxidase (MPO) activity assay in hippocampus and neocortex after MCA-O and reperfusion; type: in vivo, mouse; conditions: 1 h MCA-O, 48 h reperfusion
Procedure: Middle Cerebral Artery Occlusion (MCA-O) and reperfusion. Experimental protocols were reviewed and approved by the Institutional Animal Care and Use Committee of Louisiana State University Health Sciences Center, New Orleans. Mice (20-25 g body wt) were induced with 2% isoflurane in a mixture of 70% nitrous oxide and 30% oxygen. Anesthesia was maintained with 1% isoflurane. Temperature was maintained at 36.5-37.5° C. using a Harvard homeothermic blanket. P 10 polyethylene catheters were placed in the femoral artery and vein, and the blood pressure was monitored. Arterial blood was analyzed for PO2, PCO2, and pH after 1 h of ischemia and 30 min after the onset of reperfusion. The common carotid and external carotid arteries were temporarily ligated with a retracting suture, and the external carotid artery was dissected just proximal to its bifurcation. The occluding filament was introduced from the external carotid artery and advanced to the internal carotid artery. The AVM micro clip was removed. The filament was advanced so that the blunted tip lay in the anterior cerebral artery and the side of the filament occluded the origin of the middle cerebral artery (MCA). The stump of the external carotid artery was ligated, and tension on the retracting suture to the common carotid artery was gently released, restoring blood flow to the carotid system.
Occlusion of the middle cerebral artery (MCA-O) was maintained for 1 h; reperfusion was then established by delicate retrieval of the occluding suture from the arterial lumen, restoring blood flow to the region of the MCA. The mice were then killed, and the hippocampus and brain cortex rapidly dissected and frozen. Samples were kept at −80° C. until analysis. In some experiments, aspirin (7.5 mg/kg) was administered by gavage 15 min before MCA-O.
Polymorphonuclear leukocyte infiltration measurement by the myeloperoxidase (MPO) assay. Inhibition of leukocyte infiltration by 10,17S-docosatriene (NPD1) or docosahexaenoic acid (DHA) was measured in mouse hippocampus and neocortex after 1 h of middle cerebral artery occlusion (MCA-O) and 48 h of reperfusion. Lipids were delivered for each experiment by perfusion (250 nl/h) through Alzet minipumps implanted into the third ventricle. Hippocampus and neocortex from the ipsilateral (MCA-O-reperfusion) and contralateral sides were rapidly dissected. Brain samples were assayed for myeloperoxidase activity as described in Huang, J., Choudhri, T. F., Winfree, C. J., McTaggart, R. A., Kiss, S., Mocco, J., Kim, L. J., Protopsaltis, T. S., Zhang, Y., Pinsky, D. J., and Connolly Jr., E. S. (2000) Stroke 31, 3047-3053. Briefly, brain tissues were homogenized in 10 mM phosphate buffer (pH 7.4), then frozen and thawed with liquid N2 followed by sonication. Samples were precipitated at 10,000×g for 10 min, then aliquots of supernatants were added to 10 mM phosphate buffer (pH 6.0) and a substrate solution containing o-dianisidine (Sigma; St. Louis, Mo.) and 0.025% hydrogen peroxide, and finally incubated at 37° C. for 45 min. Spectrophotometric detection was obtained at 460 nm.

[3] = tested on: NF-κB-DNA binding activity; assay: EMSA of NF-κB in hippocampus after MCA-O; type: in vivo, mouse; conditions: ipsilateral hippocampus; 1 h MCA-O, 2 h reperfusion; infused into third ventricle 3 h at 0.25 μl/h (NPD1 0.16 μg/ml)
Procedure: Electrophoretic mobility-shift assay (EMSA) of human AP1, HIF-1α, NF-κBp50/p65, and STAT-1α. Nuclear protein extracts (NPXTs) were prepared from one to three 3.5 cm-diameter wells of HN cells and quantitated. NPXTs (5 μg) derived from HN cells were incubated with[γ-^32P]-ATP (˜3000 Ci/mmol)-end-labeled AP1, HIF-1α, NF-κκBp50/p65, or STAT-1α consensus and mutant oligonucleotides in 5-μl volumes, reacted for 30 min on ice, analyzed on 5% or 10% acrylamide/90 mM Tris-borate pH 8.4, 1 mM EDTA (TBE) gels, dried onto 2-mm Whatman filter paper at 80° C. for 2 h, and phosphorimaged using a Typhoon Variable Mode Imager (Amersham Pharmacia Biotech, Piscataway, N.J. ).
FIGS. 7A, 7B, and 7C show mouse hippocampus after 1 h MCA-O was followed by 2 h reperfusion, where either vehicle, DHA, or 10,17S-docosatriene (NPD1) (0.16 μg/ml) was infused into the third ventricle for 3 h at 0.25 μl/h. […] NF-κB was increased over two fold in the ipsilateral hippocampus after MCA-O, and the infusion of either DHA or 10,17S-docosatriene (NPD1) inhibited ischemia-reperfusion-induced NF-κB activation by 28% and 48%, respectively (FIG. 7A).

COX-2 expression = assay: COX-2 mRNA abundance in ipsilateral hippocampus after MCA-O; type: in vivo, mouse; conditions: 1 h MCA-O, 2 h reperfusion, infused into third ventricle (NPD1 0.16 μg/ml)
Procedure: COX-2 RNA abundance in hippocampus and HN cells. Abundance of human-specific COX-1 and COX-2 RNA message was assayed using RT-PCR as described in Bazan, N. G., and Lukiw, W. J. (2002) J. Biol. Chem. 277, 30359-30367.
To determine COX-1 and COX-2 expression, mRNA abundance in the ipsilateral hippocampus was measured. […] A 3-fold increase of COX-2 was seen due to MCA-O reperfusion (FIG. 7C). The infusion of the precursor DHA as well as its product 10,17S-docosatriene (NPD1) inhibited COX-2 expression by 14% and 52%, respectively.

Bcl-2 gene expression = assay: HGU133 GeneChip DNA array in HN cells: Bcl-2; type: cell-based, human; conditions: Aβ42 25 μM, DHA 50 nM or NPD1 50 nM, 18 h, nsc = no significant change
Bcl-xL gene expression = assay: HGU133 GeneChip DNA array in HN cells: Bcl-xL; type: cell-based, human; conditions: Aβ42 25 μM, DHA 50 nM or NPD1 50 nM, 18 h, nsc = no significant change
[4] = tested on: polymorphonuclear leukocyte infiltration; assay: Zymosan-induced peritonitis, leukocyte infiltration; type: in vivo, mouse; conditions: zymosan-induced peritonitis, FVB mice; i.v. bolus 1.5 min before Zymosan A; lavage at 2 h
Procedure: The inhibition of leukocyte infiltration in zymosan-induced peritonitis by 4,17S-diHDHA and 10,17S-docosatriene (NPD1) was tested. […] Peritonitis was induced in 6- to 8-week-old male FVB mice (Charles River Laboratories) by peritoneal injection of 1 mg Zymosan A. The compounds 4,17S- and 10,17S-diHDHA were injected by intravenous bolus injection, 1.5 minutes before Zymosan A treatment. Two hours after induction of peritonitis, rapid peritoneal lavages were collected, and cell type enumeration was performed.

[5] = tested on: Aβ40 and Aβ42 peptide secretion; assay: Aβ40 and Aβ42 peptide secretion by aging HN cells (Western immunoblot of medium); type: cell-based, human; conditions: aging HN cells cultured up to 8 weeks; DHA 50 nM or IL-1β 10 ng/ml continuously in medium
Procedure: Human Neural (HN) Cells. HN cells in primary culture, starting as primary spheroids (CC-2599, Clonetics, Walkersville, Md.), were grown in neural progenitor maintenance medium (NPMM) containing human epidermal and fibroblast growth factor, gentamicin/amphotericin (G/A1000), and neural survival factor-1 for up to 8 weeks. […] (Data not shown).
Additions of IL-1β and DHA to the Growth Medium. After 1 week of HN cell growth, IL-1β (10 ng/ml) or DHA (50 nM) was added to the NPMM culture medium.
To determine the effect of cytokine-mediated stress on aging HN cells, AP peptide release was assayed in the continuous presence in the culture medium of IL-1β, an inducer of reactive oxygen species (ROS) generation and oxidative stress as described in Lynch, A. M., Moore, M., Craig, S., Lonergan, P. E., Martin, D. S., Lynch, M. A. (2003) J. Biol. Chem., 278: 51075-51084; and Kaur, J., Dhaunsi, G. S., Turner, R. B. (2004) Med. Princ. Pract., 13: 26-29. Parallel experiments in aging HN cells were performed in the presence of control neuro-progenitor maintenance medium (NPMM) and the continuous presence of NPMM+DHA.

[6] = 1 μg or 3 μg over 48 h (dose of the value not stated)

CC(=O)Oc1ccccc1C(=O)O [aspirin]
effect on accumulation of PGE2 in hippocampus within 8 h of reperfusion [1]: inhibited

O=C(O)CCC[C@H](O)\C=C/C=C/C=C/[C@H](O)C/C=C\CCCCCO [20-OH-LTB4]
inhibition of oxidative stress (TNFα/H2O2)-induced Hoechst-positive cells / apoptosis (ARPE-19 cells): neither PGE2, LTB4, nor 20-OH-LTB4 (each at 50 nM) was able to elicit the degree of inhibition

CC/C=C\C/C=C\C/C=C\C/C=C\C/C=C\C/C=C\CCC(=O)O [DHA, docosahexaenoic acid]
inhibition of myeloperoxidase activity, hippocampus ([2]; 2 μg over 48 h perfusion): 60%
inhibition of myeloperoxidase activity, neocortex ([2]; 2 μg over 48 h perfusion): no inhibition
inhibition of myeloperoxidase activity, hippocampus ([2]; 20 μg over 48 h perfusion): 72%
inhibition of myeloperoxidase activity, neocortex ([2]; 20 μg over 48 h perfusion): 40%
inhibition of myeloperoxidase activity, hippocampus ([2]; 200 μg over 48 h perfusion): 82%
inhibition of myeloperoxidase activity, neocortex ([2]; 200 μg over 48 h perfusion): 73%
inhibition of ischemia-reperfusion-induced NF-κB activation [3]: 28%
inhibition of COX-2 expression (mRNA) (COX-2 expression): 14%
Bcl-2 gene expression, fold change over untreated controls (Bcl-2 gene expression): +2.5 fold
Bcl-xL gene expression, fold change over untreated controls (Bcl-xL gene expression): +1.5 fold

10,17S-docosatriene methyl ester [10,17S-docosatriene (NPD1) methyl ester]
inhibition of ipsilateral myeloperoxidase activity, hippocampus [2, 6]: 49%
inhibition of ipsilateral myeloperoxidase activity, neocortex [2, 6]: 97%

CCCCC/C=C\C/C=C\C/C=C\C/C=C\CCCC(=O)O [Arachidonic acid, arachidonic acid]
inhibition of oxidative stress (TNFα/H2O2)-induced Hoechst-positive cells / apoptosis (ARPE-19 cells): partially effective

CCC=CCC(O)C=CC=CCC=CCC=CC=CC(O)CCC(=O)O (stereo not drawn) [4,17S-diHDHA]
inhibition of polymorphonuclear leukocyte infiltration [4]: dose-dependent inhibition; also recorded: some inhibition

CCCCC/C=C\C[C@@H](O)/C=C/C=C/C=C\[C@@H](O)CCCC(=O)O [LTB4, leukotriene B4]
inhibition of oxidative stress (TNFα/H2O2)-induced Hoechst-positive cells / apoptosis (ARPE-19 cells): partially inhibitory

CCCCC[C@H](O)/C=C/[C@H]1[C@H](O)CC(=O)[C@@H]1C/C=C\CCCC(=O)O [PGE2, prostaglandin E2]
inhibition of oxidative stress (TNFα/H2O2)-induced Hoechst-positive cells / apoptosis (ARPE-19 cells): neither PGE2, LTB4, nor 20-OH-LTB4 (each at 50 nM) was able to elicit the degree of inhibition

IL-1β: human recombinant interleukin 1-beta, cytokine stressor
effect on Aβ peptide (Aβ40 and Aβ42) secretion [5]: enhanced
